The values that follow come from ChEMBL document CHEMBL4765353, “Antitubercular polyhalogenated phenothiazines and phenoselenazine with reduced binding to CNS receptors” (Eur J Med Chem, 2020).

One series concerns Vero. The series is described as follows: Cytotoxicity against African green monkey Vero cells assessed as decrease in cell viability incubated for 72 hrs by resazurin assay. Format: cell-based. Conditions: Chlorocebus sabaeus.
Series [1] concerns Mycobacterium tuberculosis. Format: functional. Conditions: 504 h, time 3 weeks, read-out: MIC100.
Series [2] concerns Mycobacterium tuberculosis. Format: functional. As to conditions: H37Rv, 240 h, time 10 day.
For series [3], the system named is Mycobacterium tuberculosis H37Rv. Kind of series: Inhibition of NDH-2 in Mycobacterium tuberculosis H37Rv inverted membrane vesicles over expressing ndh gene assessed as reduction in oxygen consumption at 50 uM by NADH oxygen consumption assay. The series is classed as cell membranes. Conditions: Membrane vesicle.
For series [4], the system named is Mycolicibacterium smegmatis. Kind of series: Inhibition of NDH-2 in wild type Mycobacterium smegmatis mc24517 inverted membrane vesicles assessed as reduction in oxygen consumption at 50 uM by NADH oxygen consumption assay. As to conditions: Membrane vesicle. The series is classed as cell membranes.
In series [5] the target is 5-hydroxytryptamine receptor 7 (Homo sapiens, UniProt P34969). The series is described as follows: Displacement of [3H]-5-CT from human 5HT7 receptor expressed in HEK293 cells. Format: cell-based. A general note: Displacement assays read how much labelled ligand stays bound in the presence of the test substance.
Series [6] relates to HepG2. The series is described as follows: Hepatotoxicity in human HepG2 cells at 10 uM incubated for 48 hrs by MTS assay. As to conditions: hepg2, 48 h. The series is classed as toxicity, cell-based.
For the next series, the target named is D(2) dopamine receptor (Homo sapiens, UniProt P14416). Kind of series: Displacement of [3H]-Raclopride from human D2 receptor (unknown origin) expressed in HEK293 cell membranes. Also on record: species or system Cell membrane.
Series [7] deals with 5-hydroxytryptamine receptor 6 (Homo sapiens, UniProt P50406). Kind of series: Displacement of [3H]-LSD from human 5HT6 receptor expressed in HEK293 cells. The series is classed as cell-based.
Series [8] is described as follows: Inhibition of NDH-2 in wild type Mycobacterium smegmatis mc24517 inverted membrane vesicles by NADH oxygen consumption assay. The series is classed as cell membranes, Mycolicibacterium smegmatis, Membrane vesicle.
The nature of series [9]: Inhibition of NDH-2 in Mycobacterium tuberculosis H37Rv inverted membrane vesicles over expressing ndh gene by NADH oxygen consumption assay. Format: cell membranes, Membrane vesicle.
Series [10] deals with Mycobacterium tuberculosis. The series is described as follows: Antitubercular activity against Mycobacterium tuberculosis H37Rv incubated for 7 days by Microplate Alamar Blue Assay. The series is classed as functional. As to conditions: 168 h, time 7 day. Background: Resazurin is reduced to fluorescent resorufin, in cell work by metabolically active cells.
In series [11] the test system is Mycobacterium tuberculosis. Kind of series: Antitubercular activity against Mycobacterium tuberculosis H37Rv incubated for 4 days by Microplate Alamar Blue Assay. The series is classed as functional. As to conditions: 96 h, time 4 day.
In series [12] the target is 5-hydroxytryptamine receptor 2A (Homo sapiens, UniProt P28223). Kind of series: Displacement of [3H]-Ketanserin from human 5HT2A receptor expressed in CHO-K1 cells. The series is classed as ADME, cell-based.
Series [13] is described as follows: Metabolic stability in human liver microsomes by LC-MS/MS analysis. The series is classed as ADME, Microsome.
In series [14] the test system is HepG2. Kind of series: Hepatotoxicity in human HepG2 cells at 50 uM incubated for 48 hrs by MTS assay. Format: toxicity, cell-based. Conditions: hepg2, 48 h. In general terms: Tetrazolium assays rely on reduction of a dye to a coloured formazan, in cell work by metabolically active cells.

Values after ≈ are worked out from the molar mass of the structure shown.

Sequence of 5-hydroxytryptamine receptor 2A (P28223 whole entry): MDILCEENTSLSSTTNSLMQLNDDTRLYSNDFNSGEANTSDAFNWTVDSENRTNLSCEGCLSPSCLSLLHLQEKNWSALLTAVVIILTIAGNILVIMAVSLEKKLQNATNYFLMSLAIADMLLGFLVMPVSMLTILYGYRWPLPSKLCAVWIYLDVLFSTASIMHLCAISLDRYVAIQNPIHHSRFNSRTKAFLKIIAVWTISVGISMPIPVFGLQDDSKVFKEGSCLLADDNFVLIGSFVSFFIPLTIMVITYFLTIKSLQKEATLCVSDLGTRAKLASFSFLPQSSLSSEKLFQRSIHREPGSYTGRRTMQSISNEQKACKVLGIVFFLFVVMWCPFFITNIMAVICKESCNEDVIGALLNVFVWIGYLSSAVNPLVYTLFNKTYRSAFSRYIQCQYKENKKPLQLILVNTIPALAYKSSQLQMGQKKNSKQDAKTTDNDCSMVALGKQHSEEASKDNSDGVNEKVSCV
Sequence of 5-hydroxytryptamine receptor 6 (P50406 whole entry): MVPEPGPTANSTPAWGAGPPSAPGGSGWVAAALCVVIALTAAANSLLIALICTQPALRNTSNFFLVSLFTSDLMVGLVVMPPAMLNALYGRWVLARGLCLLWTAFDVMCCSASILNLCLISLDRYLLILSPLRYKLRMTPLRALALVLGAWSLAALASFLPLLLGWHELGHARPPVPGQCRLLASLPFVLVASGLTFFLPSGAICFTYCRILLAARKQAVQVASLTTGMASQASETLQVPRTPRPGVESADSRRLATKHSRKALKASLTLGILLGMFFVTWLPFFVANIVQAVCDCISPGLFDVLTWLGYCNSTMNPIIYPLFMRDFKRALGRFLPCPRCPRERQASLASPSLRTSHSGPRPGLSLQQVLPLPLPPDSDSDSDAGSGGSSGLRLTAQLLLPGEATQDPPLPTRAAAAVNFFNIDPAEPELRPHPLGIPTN
Sequence of 5-hydroxytryptamine receptor 7 (P34969 whole entry): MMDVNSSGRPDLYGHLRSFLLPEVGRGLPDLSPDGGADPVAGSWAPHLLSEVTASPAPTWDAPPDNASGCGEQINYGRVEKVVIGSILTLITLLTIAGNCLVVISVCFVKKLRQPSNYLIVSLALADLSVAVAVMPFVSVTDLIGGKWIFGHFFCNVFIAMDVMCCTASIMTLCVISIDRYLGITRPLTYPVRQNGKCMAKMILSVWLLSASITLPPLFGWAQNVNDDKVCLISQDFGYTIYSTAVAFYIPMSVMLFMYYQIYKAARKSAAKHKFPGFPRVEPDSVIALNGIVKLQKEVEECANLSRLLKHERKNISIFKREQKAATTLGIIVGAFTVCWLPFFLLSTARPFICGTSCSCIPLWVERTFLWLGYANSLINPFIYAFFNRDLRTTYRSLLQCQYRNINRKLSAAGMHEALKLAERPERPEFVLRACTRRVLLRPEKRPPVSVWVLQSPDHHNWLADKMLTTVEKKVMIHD
Sequence of D(2) dopamine receptor (P14416 whole entry): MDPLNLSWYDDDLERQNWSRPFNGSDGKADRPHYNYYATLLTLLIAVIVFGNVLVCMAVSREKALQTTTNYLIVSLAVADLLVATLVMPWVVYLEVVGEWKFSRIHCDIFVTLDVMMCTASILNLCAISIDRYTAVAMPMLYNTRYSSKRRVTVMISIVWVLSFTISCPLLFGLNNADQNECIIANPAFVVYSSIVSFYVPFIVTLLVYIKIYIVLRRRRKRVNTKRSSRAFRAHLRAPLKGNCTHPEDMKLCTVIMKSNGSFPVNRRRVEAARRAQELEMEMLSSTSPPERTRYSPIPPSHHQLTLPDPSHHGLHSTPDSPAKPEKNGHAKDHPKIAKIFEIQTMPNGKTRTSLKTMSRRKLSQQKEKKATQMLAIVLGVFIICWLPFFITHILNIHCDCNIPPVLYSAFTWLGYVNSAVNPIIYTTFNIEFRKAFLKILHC

For `CN(C)CCCN1c2ccccc2Sc2ccc(Cl)cc21` [CHLORPROMAZINE], in the series with Vero, the IC50 was determined as 26.5 µg/mL (≈ 83.2 µM). Further, in series [1], the MIC came out at 4.41 µg/mL (≈ 13.8 µM). The compound also had an MIC90 in series [2] of 0.08 µg/mL (≈ 0.251 µM).
Turning to `CN1CCCCC1CCN1c2ccccc2Sc2cc(Cl)ccc21.Cl` (stereo not drawn), the IC50 in the series with Vero worked out at 30.7 µg/mL. Also, the inhibition in series [3] amounted to 12.5%; in series [4], 47.5%. The MIC in series [1] is 5.48 µg/mL.
As to `Brc1ccc2c(c1)Sc1cc(Br)ccc1N2CCCN1CCCC1.Cl`, in the series on Vero, the IC50 was found to be 17.1 µg/mL. For the same compound, the MIC in [1] was 1.45 µg/mL.
For `Brc1ccc2c(c1)Sc1cc(Br)ccc1N2Cc1ccccn1.Cl`, in that order: more than 100 µg/mL and more than 100 µg/mL.
As for `NNC(=O)c1ccncc1` [ISONIAZID], the MIC in series [1] was found to be 0.25 µg/mL (≈ 1.82 µM). In [2], the MIC90 amounted to 2.46 µg/mL (≈ 17.9 µM).
For the compound `CN(C)CCCN1c2ccc(Cl)cc2Sc2cc(Cl)cc(Cl)c21.Cl`, the IC50 with Vero is 16.8 µg/mL. Also, in series [1], the MIC stood at 4.46 µg/mL.
Consider `Cl.Clc1cc(Cl)c2c(c1)Sc1cc(Cl)cc(Cl)c1N2CCCN1CCOCC1`, for which the MIC in series [1] is more than 50 µg/mL.
On the same count and under the same terms, with `CC(=O)NC[C@H]1CN(c2ccc(N3CCOCC3)c(F)c2)C(=O)O1` [LINEZOLID] the figure was 0.87 µg/mL (≈ 2.58 µM).
As for `CN1CCCCC1CCN1c2ccc(Br)cc2Sc2cc(Br)ccc21.Cl` (stereo not drawn), the Ki in series [5] is 2150 nM; on D(2) dopamine receptor, 688 nM; in series [7], 758 nM; in series [12], 1750 nM. For the same compound, the Activity entry in the series on HepG2 [6] is listed as “Toxic”. In addition, the IC50 in the series on Vero came out at 18.3 µg/mL; in [8], 4.7 µg/mL; in [9] it was 11.2 µg/mL. In addition, the inhibition was 84.8% in series [3] and 93.7% in [4]. The MIC90 in series [10] was 3.1 µg/mL; in [11], 3.1 µg/mL; in series [2] it was 2.96 µg/mL. For the same compound, the MIC in [1] amounted to 1.5 µg/mL. Moreover, the Stabilty entry in series [13] is “Unstable”.
Consider `CSc1ccc2c(c1)N(CCC1CCCCN1C)c1ccccc1S2` (stereo not drawn) [THIORIDAZINE], for which the Ki in series [5] was 181 nM; in series [7], 71 nM. The IC50 in the series with Vero is 17.8 µg/mL (≈ 48 µM). Moreover, in series [1], the MIC came out at 2.4 µg/mL (≈ 6.48 µM). In series [2], the MIC90 came to 5.29 µg/mL (≈ 14.3 µM).
As to `CN1CCCCC1CCN1c2ccc(Cl)cc2Sc2cc(Cl)cc(Cl)c21.Cl` (stereo not drawn), the IC50 with Vero turned out to be 19.2 µg/mL. Moreover, the MIC in [1] came out at 2.67 µg/mL.
Take `Brc1ccc2c(c1)Sc1cc(Br)ccc1N2CCN1CCOCC1.Cl`: the IC50 in the series with Vero was more than 100 µg/mL. In addition, in [1], the MIC is more than 100 µg/mL.
Regarding `CN1CCCCC1CCN1c2c(Cl)cc(Cl)cc2Sc2cc(Cl)cc(Cl)c21.Cl` (stereo not drawn), the Ki in [5] is 1000 nM; at D(2) dopamine receptor, 639 nM; in series [7], 387 nM; in series [12] it was 1240 nM. Further, the Activity result in the series with HepG2 [14] is recorded as “Non-Toxic”. The IC50 in the series on Vero stood at 26.9 µg/mL; in series [8] it was 3.6 µg/mL; in [9], 4.5 µg/mL. In addition, the inhibition amounted to 74.2% in series [3] and 92.4% in series [4]. The MIC90 in series [10] worked out at 3.1 µg/mL; in series [11], 3.1 µg/mL; in [2], 2.89 µg/mL. Also, in series [1], the MIC worked out at 1.55 µg/mL.
For the compound `CN(C)CCCN1c2ccc(Br)cc2Sc2cc(Br)ccc21.Cl`, the IC50 in the series with Vero came out at 27 µg/mL. Besides, the inhibition worked out at 40.7% in series [3] and 69.4% in [4]. In series [1], the MIC is 2.38 µg/mL.
Consider `CN(C)CCCN1c2ccc(Cl)cc2Sc2cc(Cl)ccc21.Cl`, for which, in the series with Vero, the IC50 came to 16.7 µg/mL. The MIC in [1] was 2.51 µg/mL.
In the same order, the values of `Cl.Clc1cc(Cl)c2c(c1)Sc1cc(Cl)cc(Cl)c1N2CCCN1CCCC1` are 18 µg/mL and 1.5 µg/mL.
For `CN(C)CCCN1c2ccccc2Sc2cc(Cl)ccc21.Cl`, in that order: 35.8 µg/mL and 6.59 µg/mL.
For `CN(C)CCCN1c2ccc(Br)cc2Sc2cc(Br)cc(F)c21.Cl`, in that order: 34.7 µg/mL and 5.7 µg/mL.
Turning to `CO[C@H]1/C=C/O[C@@]2(C)Oc3c(C)c(O)c4c(O)c(c(/C=N/N5CCN(C)CC5)c(O)c4c3C2=O)NC(=O)/C(C)=C\C=C\[C@H](C)[C@H](O)[C@@H](C)[C@@H](O)[C@@H](C)[C@H](OC(C)=O)[C@@H]1C` [RIFAMPIN], the MIC90 in series [10] is 0.06 µg/mL (≈ 0.0729 µM); in series [11] it was 0.06 µg/mL (≈ 0.0729 µM); in series [2] it was more than 128 µg/mL. Further, in series [1], the MIC was found to be 0.01 µg/mL (≈ 0.0122 µM).
With `CN1CCCCC1CCN1c2ccc(Br)cc2Sc2cc(Br)cc(F)c21.Cl` (stereo not drawn), in the series on Vero, the IC50 was found to be 17.7 µg/mL. Also, the MIC in [1] came to 2.65 µg/mL.
As for `CN1CCCCC1CCN1c2ccc(Br)cc2[Se]c2cc(Br)ccc21.Cl` (stereo not drawn), the Ki in [5] was 2340 nM; at D(2) dopamine receptor, 367 nM; in series [7], 222 nM; in [12], 1760 nM. Moreover, the Activity result in the series on HepG2 [6] is listed as “Non-Toxic”. Further, the IC50 in the series with Vero amounted to 17.6 µg/mL. The MIC in series [1] came to 2.35 µg/mL. The Stabilty entry in series [13] is “Stable”.
Turning to `Brc1ccc2c(c1)Sc1cc(Br)ccc1N2CCCN1CCOCC1.Cl`, the IC50 in the series on Vero is more than 50 µg/mL. Further, the MIC in [1] worked out at 5.52 µg/mL.
For `Brc1ccc2c(c1)Sc1cc(Br)ccc1N2CCN1CCCC1`, in that order: 9.42 µg/mL (≈ 20.7 µM) and 2.57 µg/mL (≈ 5.66 µM).
As to `CN1CCCCC1CCN1c2ccc(Cl)cc2Sc2cc(Cl)ccc21.Cl` (stereo not drawn), the IC50 stood at 17.9 µg/mL in the series with Vero and 6.5 µg/mL in series [8]. The inhibition in series [3] turned out to be 59.3%; in [4], 85.4%. The MIC in series [1] amounted to 2.4 µg/mL.
On to `N=c1sc(-c2ccc(F)cc2)nn1CC(=O)N1c2ccc(Br)cc2Sc2cc(Br)ccc21`, for which the MIC in [1] is more than 50 µg/mL.
Take `CCCCCCCc1cc(O)c2ccccc2[n+]1[O-]`: the results for the inhibition in series [3] and in series [4] were 29.2% and 18.1%, respectively.

A word on the IC50: it is the concentration needed to halve the response being measured. As usually defined, the MIC90 is an inhibitory concentration at the 90% level, which refers to growth in some studies and to a panel of isolates in others. As a reminder, the inhibition is the share of the control response that was lost under treatment. What is called Ki is the dissociation constant of the complex between target and ligand, obtained from inhibition or displacement.
